Test results taken from US10301272B2, “Carboxamide or sulfonamide substituted thiazoles and related derivatives as modulators for the orphan nuclear receptor ROR[γ]” (Phenex Pharmaceuticals AG, priority 2012, dated 2019).
Where two headings read alike, the source gives them in different places.

Legend:
RORγ = RORγ (Homo sapiens, UniProt P51449); assay: RORγ Gal4 Reporter Gene Assay; assay type: cell-based
How it was run: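 Cells at 5×10^5/well were transfected with RORγ fragments fused to the GAL4 DNA-binding domain (CMV promoter), a 5×GAL4-site firefly luciferase reporter and CMV-Renilla luciferase for normalization. About 4 h later serum-free MEM and compound were added (vehicle ≤0.1%). Cultures at 37 °C, 5% CO2; at least triplicates.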

[1] = biological target: RORγ ligand binding domain (LBD) (Homo sapiens (Human), UniProt P51449); assay: TR-FRET Activity Assay (ligand sensing assay, LANCE); details: for pIC50 (FRET): TR-FRET, interaction of RORγ-LBD with coactivator peptide
Chain of RORγ ligand binding domain (LBD) (P51449 269-508): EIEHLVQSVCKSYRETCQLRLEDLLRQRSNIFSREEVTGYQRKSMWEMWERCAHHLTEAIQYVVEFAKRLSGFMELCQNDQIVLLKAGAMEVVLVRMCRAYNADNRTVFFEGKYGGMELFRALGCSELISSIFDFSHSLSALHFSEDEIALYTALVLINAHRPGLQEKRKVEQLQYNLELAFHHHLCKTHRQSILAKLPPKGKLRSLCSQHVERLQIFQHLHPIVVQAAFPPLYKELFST

Chain of RORγ (P51449 whole entry, looked up, the tested form may be a part): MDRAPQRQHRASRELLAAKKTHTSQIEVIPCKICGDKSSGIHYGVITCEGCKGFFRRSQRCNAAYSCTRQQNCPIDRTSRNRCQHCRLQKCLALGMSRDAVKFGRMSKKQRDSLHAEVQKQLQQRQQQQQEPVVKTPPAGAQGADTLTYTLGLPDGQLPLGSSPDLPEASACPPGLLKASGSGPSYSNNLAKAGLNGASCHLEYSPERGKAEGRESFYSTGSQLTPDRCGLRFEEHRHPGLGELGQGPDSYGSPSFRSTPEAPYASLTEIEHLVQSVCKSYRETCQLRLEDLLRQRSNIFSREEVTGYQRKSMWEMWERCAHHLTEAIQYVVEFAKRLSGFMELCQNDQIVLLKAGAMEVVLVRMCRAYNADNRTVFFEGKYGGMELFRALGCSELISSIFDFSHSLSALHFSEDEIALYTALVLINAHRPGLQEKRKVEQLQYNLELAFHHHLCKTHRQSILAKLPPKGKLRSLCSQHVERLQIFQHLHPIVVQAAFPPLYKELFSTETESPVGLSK

## CC(C)(C)NS(=O)(=O)c1ccc(-c2sc(C(=O)NN3CCOCC3)nc2CC2CCCCC2)c(Cl)c1Cl [6/20]
RORγ
  pIC50 (FF): 6.9/8.7/8.7
  pIC50 (REN): 6.9/8.7/8.7
[1]
  pIC50 (FRET): 6.9

## CC(C)(C)NS(=O)(=O)c1ccc(-c2sc(C(=O)NC3C[S+]([O-])C3)nc2CC2CCCCC2)cc1C(C)(C)O (stereo not drawn) [Example 15/1]
RORγ
  pIC50 (FF): 6.7/8.0/8.0
  pIC50 (REN): 6.7/8.0/8.0
[1]
  pIC50 (FRET): 6.7/8.0/8.0

## CC(C)(O)c1ccc(-c2sc(C(=O)NC3CCS(=O)(=O)CC3)nc2CC2CCCCC2)c2ccccc12 [7/23]
RORγ
  pIC50 (FF): <4.7/6.8/6.7
  pIC50 (REN): <4.7/6.8/6.7
[1]
  IC50: > 20000 nM

## CNC(=O)C(C)(C)CCNC(=O)c1nc(CC2CCCCC2)c(-c2ccc(S(=O)(=O)NC(C)(C)C)c(C(F)(F)F)c2)s1 [Example 10/1]
RORγ
  pIC50 (FF): 6.2/7.0/7.1
  pIC50 (REN): 6.2/7.0/7.1
[1]
  pIC50 (FRET): 6.2/7.0/7.1

## CC(C)(CCNC(=O)c1nc(CC2CCCCC2)c(-c2cc(C(C)(C)C)cc(C3(C)CC3)c2)s1)C(=O)O [Example 7, 4-(5-(3-(tert-Butyl)-5-(1-methylcyclopropyl)phenyl)-4-(cyclohexylmehthyl)thiazole-2-carboxamido)-2,2-dimethylbutanoic acid]
RORγ
  pIC50 (FF): 6.3/7.0/7.0
  pIC50 (REN): 6.3/7.0/7.0
[1]
  pIC50 (FRET): 6.3/7.0/7.0

## CC1CC(C)CN(C(=O)c2nc(C(=O)NCC(C)(C)O)sc2-c2ccc(S(=O)(=O)NC(C)(C)C)c3ccccc23)C1 (stereo not drawn) [304/8]
RORγ
  pIC50 (FF): 6.0/6.9/6.9
  pIC50 (REN): 6.0/6.9/6.9
[1]
  pIC50 (FRET): 6.0/6.9/6.9

## O=C(c1nc(CC2CCCCC2)c(-c2ccc(S(=O)(=O)N3CCOCC3)c3ccccc23)s1)N1CC2(CCS(=O)(=O)CC2)C1 [14/4]
RORγ
  pIC50 (FF): 6.2/6.4/6.3
  pIC50 (REN): 6.2/6.4/6.3
[1]
  pIC50 (FRET): 6.2/6.4/6.3

## CC(C)(C)NS(=O)(=O)c1ccc(-c2oc(C(=O)NC3CCS(=O)(=O)CC3)nc2CC2CCCCC2)c(Cl)c1Cl [100/16]
RORγ
  pIC50 (FF): 6.6/8.4/8.2
  pIC50 (REN): 6.6/8.4/8.2
[1]
  pIC50 (FRET): 6.6/8.4/8.2

## CC(C)(C)NS(=O)(=O)c1ccc(-c2sc(C(=O)NN3CCS(=O)(=O)CC3)nc2CC2CCCCC2)c(Cl)c1Cl [6/21]
RORγ
  pIC50 (FF): 6.8/8.7/8.7
  pIC50 (REN): 6.8/8.7/8.7
[1]
  pIC50 (FRET): 6.8/8.7/8.7

## CC(C)(C)NS(=O)(=O)c1ccc(-c2sc(C(=O)NCC3(O)CCOCC3)nc2CC2CCCCC2)cc1C(C)(C)O [6/27]
RORγ
  pIC50 (FF): 6.7/7.7/7.7
  pIC50 (REN): 6.7/7.7/7.7
[1]
  pIC50 (FRET): 6.7/7.7/7.7

## CC(C)(O)CC(=O)Nc1nc(CC2CCCCC2)c(-c2ccc(S(=O)(=O)NC(C)(C)C)c(C(F)(F)F)c2)s1 [Example 200, N-(5-(4-(N-(tert-Butyl)sulfamoyl)-3-(trifluoromethyl)phenyl)-4-(cyclohexylmethyl)thiazol-2-yl)-3-hydroxy-3-methylbutanamide]
RORγ
  pIC50 (FF): 6.6/7.5/7.8
  pIC50 (REN): 6.6/7.5/7.8
[1]
  pIC50 (FRET): 6.6/7.5/7.8

## CC(C)(C)NS(=O)(=O)c1ccc(-c2oc(C(=O)NC34CCC(C(=O)O)(CC3)C4)nc2CC2CCCCC2)c2ccccc12 [100/23]
RORγ
  pIC50 (FF): 6.1/8.3/8.4
  pIC50 (REN): 6.1/8.3/8.4
[1]
  pIC50 (FRET): 6.1/8.3/8.4

## CC(C)(C)c1cc(-c2sc(C(=O)N[C@H]3C[C@H](C(=O)O)C3)nc2CC2CCCCC2)cc(C(C)(C)F)c1 [Example 24, (trans)-3-(5-(3-(tert-Butyl)-5-(2-fluoropropan-2-yl)phenyl)-4-(cyclohexylmethyl)thiazole-2-carboxamido)cyclobutanecarboxylic acid]
RORγ; firefly (FF) luciferase, 293T cells
  pIC50 (FF): 7.5
RORγ; renilla normalised (RENnorm) luciferase, 293T cells
  pIC50 (REN): 7.5
[1]
  IC50: 316 nM

## CC(C)(O)c1cc(-c2sc(C(=O)N[C@H]3C[C@@H](C(=O)O)C3)nc2CC2CCCCC2)cc(C2(C)CC2)c1 [9/10]
RORγ
  pIC50 (FF): 6.3/7.2/7.2
  pIC50 (REN): 6.3/7.2/7.2
[1]
  pIC50 (FRET): 6.3/7.2/7.2

## CC(C)(C)NS(=O)(=O)c1ccc(-c2sc(C(=O)NC3COC3)nc2CC2CCCCC2)c(Cl)c1Cl [6/34]
RORγ
  pIC50 (FF): 7.2/8.5/8.5
  pIC50 (REN): 7.2/8.5/8.5
[1]
  pIC50 (FRET): 7.2/8.5/8.5

## Cc1c(S(=O)(=O)NC(C)(C)C)ccc(-c2sc(C(=O)N[C@H]3C[C@H](C(=O)O)C3)nc2CC2CCCCC2)c1C(F)(F)F [7/14]
RORγ
  pIC50 (FF): 5.8/8.5/8.7
  pIC50 (REN): 5.8/8.5/8.7
[1]
  pIC50 (FRET): 5.8/8.5/8.7

## CC(C)(O)CNC(=O)c1nc(CC2CCCCC2)c(-c2ccc(S(=O)(=O)NC3(C)COC3)c3ccccc23)s1 [8/5]
RORγ
  pIC50 (FF): 6.4/8.5/8.7
  pIC50 (REN): 6.4/8.5/8.7
[1]
  pIC50 (FRET): 6.4/8.5/8.7

## CC(C)(C)NS(=O)(=O)c1ccc(-c2sc(C(=O)N[C@H]3C[C@H](S(C)(=O)=O)C3)nc2CC2CCCCC2)c(Cl)c1Cl [6/41]
RORγ
  pIC50 (FF): 7.3/8.0/8.2
  pIC50 (REN): 7.3/8.0/8.2
[1]
  pIC50 (FRET): 7.3/8.0/8.2

## CC(C)(O)CNC(=O)c1nc(CC2CCCCC2)c(-c2ccc(S(=O)(=O)NC(C)(C)C)c(C(F)F)c2F)s1 [6/18]
RORγ
  pIC50 (FF): 7.0/8.5/8.7
  pIC50 (REN): 7.0/8.5/8.7
[1]
  pIC50 (FRET): 7.0/8.5/8.7

## CC1(c2cc(C(=O)NCC(F)(F)F)cc(-c3sc(C(=O)N[C@H]4C[C@H](C(=O)O)C4)nc3CC3CCCCC3)c2)CC1 [7/6]
RORγ
  pIC50 (FF): 6.2/7.1/7.2
  pIC50 (REN): 6.2/7.1/7.2
[1]
  pIC50 (FRET): 6.2/7.1/7.2

## CNS(=O)(=O)c1ccc(-c2sc(C(=O)N3CC4(CCS(=O)(=O)CC4)C3)nc2CC2CCCCC2)c2ccccc12 [14/5]
RORγ
  pIC50 (FF): 6.3/6.6/6.6
  pIC50 (REN): 6.3/6.6/6.6
[1]
  pIC50 (FRET): 6.3/6.6/6.6

## CC(C)(C)NS(=O)(=O)c1ccc(-c2sc(C(=O)NCc3ncc(S(C)(=O)=O)s3)nc2CC2CCCCC2)c(Cl)c1Cl [15/7]
RORγ
  pIC50 (FF): 7.2/8.3/8.4
  pIC50 (REN): 7.2/8.3/8.4
[1]
  pIC50 (FRET): 7.2/8.3/8.4

## CC(C)(C)c1cc(-c2ccc(C(N)=O)cc2CC2CCCCC2)cc(C(C)(C)C)c1 [Example 209]
RORγ
  pIC50 (FF): 6.4/6.2/6.2
  pIC50 (REN): 6.4/6.2/6.2
[1]
  pIC50 (FRET): 6.4/6.2/6.2

## CCCc1nc(C(=O)N[C@H]2C[C@H](C(=O)O)C2)sc1-c1ccc(S(=O)(=O)NC(C)(C)C)c(Cl)c1Cl [300/6]
RORγ; firefly (FF) luciferase, 293T cells, read-out: pIC50 (FF) (converted)
  IC50: 126 nM
RORγ; renilla normalised (RENnorm) luciferase, 293T cells, read-out: pIC50 (REN) (converted)
  IC50: 158 nM
[1]
  IC50: 200 nM

## CC(C)(C)c1cc(-c2oc(C(=O)NC3CCOCC3)nc2CC2CCCCC2)cc(C2(C)CC2)c1 [100/18]
RORγ
  pIC50 (FF): 6.9/6.9/6.9
  pIC50 (REN): 6.9/6.9/6.9
[1]
  pIC50 (FRET): 6.9/6.9/6.9

## CC(C)(C)NS(=O)(=O)c1ccc(-c2sc(C(=O)NC3CCS(=O)(=O)CC3)nc2CC2CCCCC2)cc1C(C)(C)O [6/26]
RORγ
  pIC50 (FF): 6.6/7.7/7.8
  pIC50 (REN): 6.6/7.7/7.8
[1]
  pIC50 (FRET): 6.6/7.7/7.8

## COC(c1nc(C(=O)N[C@H]2C[C@H](C(=O)O)C2)sc1-c1cc(C(C)(C)C)cc(C2(C)CC2)c1)C1CCCCC1 (stereo partly drawn) [19/2]
RORγ
  pIC50 (FF): 6.1/7.0/7.0
  pIC50 (REN): 6.1/7.0/7.0
[1]
  pIC50 (FRET): 6.1/7.0/7.0

## CN1CCN(C(=O)c2nc(CC3CCCCC3)c(-c3ccc(S(=O)(=O)NC(C)(C)C)c4ccccc34)s2)CC1 [6/53]
RORγ
  pIC50 (FF): 6.6/7.1/7.4
  pIC50 (REN): 6.6/7.1/7.4
[1]
  pIC50 (FRET): 6.6/7.1/7.4

## CC(C)(C)NS(=O)(=O)c1ccc(-c2oc(C(=O)N[C@H]3C[C@H](C(=O)O)C3)nc2CC2CCCCC2)c2ccccc12 [100/13]
RORγ
  pIC50 (FF): 6.1/7.0/7.1
  pIC50 (REN): 6.1/7.0/7.1
[1]
  pIC50 (FRET): 6.1/7.0/7.1

## CC(C)COc1cc(-c2sc(C(=O)N[C@H]3C[C@H](C(=O)O)C3)nc2CC2CCCCC2)cc(C(C)(C)C)n1 [7/11]
RORγ
  pIC50 (FF): 5.9/7.4/7.4
  pIC50 (REN): 5.9/7.4/7.4
[1]
  pIC50 (FRET): 5.9/7.4/7.4

## CC(C)(O)CNC(=O)c1nc(CC2CCCCC2)c(-c2ccc(S(=O)(=O)NC(C)(C)C)c3c(F)cccc23)s1 [19/8]
RORγ
  pIC50 (FF): 7.0/7.7/7.8
  pIC50 (REN): 7.0/7.7/7.8
[1]
  pIC50 (FRET): 7.0/7.7/7.8

## CC(C)(C)NS(=O)(=O)c1ccc(-c2sc(S(N)(=O)=O)nc2CC2CCCCC2)cc1C(C)(C)C [Example 13/1]
RORγ
  pIC50 (FF): 6.3/6.6/6.6
  pIC50 (REN): 6.3/6.6/6.6
[1]
  pIC50 (FRET): 6.3/6.6/6.6

## CC(C)(C)c1cc(-c2oc(C(N)=O)nc2CC2CCCCC2)cc(C(C)(C)C)c1 [Example 100, 4-(Cyclohexylmethyl)-5-(3,5-di-tert-butylphenyl)oxazole-2-carboxamide]
RORγ
  pIC50 (FF): 6.6/5.8/5.8
  pIC50 (REN): 6.6/5.8/5.8
[1]
  pIC50 (FRET): 6.6/5.8/5.8
